Reference: patent US8802597B2, “Herbicidal pyrimidines” (E I du Pont de Nemours and Company, priority 2003, dated 2014)
Like-named read-outs stand apart in the source and are kept apart here.

Experiments:
Assay type in all cases: in vivo
[1] = tested on: crabgrass (Digitaria sanguinalis); test: Test B pre/postemergence; conditions: Digitaria sanguinalis; for pest or weed control at 125 g/ha: 125 g ai/ha; for pest or weed control at 500 g/ha: 500 g ai/ha
Method in brief: (§1)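 Test chemicals in a non-phytotoxic solvent mixture with surfactant were applied preemergence to planted seeds and postemergence to plants 2 to 18 cm tall (1- to 4-leaf stage). After 13 to 15 days in a greenhouse, injury was visually rated against untreated controls on a 0 to 100 scale.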

[2] = tested on: wheat (Triticum aestivum); test: Test B pre/postemergence; conditions: Triticum aestivum; for plant injury at 125 g/ha: 125 g ai/ha; for plant injury at 500 g/ha: 500 g ai/ha
Method in brief: as §1

[3] = tested on: Surinam grass (Brachiaria decumbens); test: Test B pre/postemergence; conditions: Urochloa decumbens; for pest or weed control at 125 g/ha: 125 g ai/ha; for pest or weed control at 500 g/ha: 500 g ai/ha
Method in brief: as §1

corn (Zea mays) = test: Test B pre/postemergence; conditions: Zea mays
Method in brief: as §1

[4] = tested on: giant foxtail (Setaria faberii); test: Test B pre/postemergence; conditions: Setaria faberi; for pest or weed control at 125 g/ha: 125 g ai/ha; for pest or weed control at 500 g/ha: 500 g ai/ha
Method in brief: as §1

[5] = tested on: velvetleaf (Abutilon theophrasti); test: Test B pre/postemergence; conditions: Abutilon theophrasti; for pest or weed control at 125 g/ha: 125 g ai/ha; for pest or weed control at 500 g/ha: 500 g ai/ha
Method in brief: as §1

[6] = tested on: barnyardgrass (Echinochloa crus-galli); test: Test B pre/postemergence; conditions: Echinochloa crus-galli; for pest or weed control at 125 g/ha: 125 g ai/ha; for pest or weed control at 500 g/ha: 500 g ai/ha
Method in brief: as §1

[7] = tested on: cocklebur (Xanthium strumarium); test: Test B pre/postemergence; conditions: Xanthium strumarium; for pest or weed control at 125 g/ha: 125 g ai/ha; for pest or weed control at 500 g/ha: 500 g ai/ha
Method in brief: as §1

[8] = tested on: lambsquarters (Chenopodium album); test: Test B pre/postemergence; conditions: Chenopodium album; for pest or weed control at 125 g/ha: 125 g ai/ha; for pest or weed control at 500 g/ha: 500 g ai/ha
Method in brief: as §1

[9] = tested on: pigweed (Amaranthus retroflexus); test: Test B pre/postemergence; conditions: Amaranthus retroflexus; for pest or weed control at 125 g/ha: 125 g ai/ha; for pest or weed control at 500 g/ha: 500 g ai/ha
Method in brief: as §1

[10] = tested on: morningglory (Ipomoea coccinea); test: Test B pre/postemergence; conditions: Ipomoea; for pest or weed control at 125 g/ha: 125 g ai/ha; for pest or weed control at 500 g/ha: 500 g ai/ha
Method in brief: as §1

[11] = tested on: barnyardgrass (Echinochloa crus-galli); test: Test B flooded paddy test; conditions: Echinochloa crus-galli, Flood, 1000 g ai/ha; scale 0 (no effect) to 100 (complete control); read-out: Plant response rating, Barnyardgrass
Method in brief: (§2)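 Visual injury scoring (0 = no effect, 100 = complete control) versus controls made 13 to 15 days after treatment in the greenhouse. Test species were grown in flooded paddy to the 2-leaf stage: rice, barnyardgrass, umbrella sedge, duck salad.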

[12] = tested on: umbrella sedge (Cyperus difformis); test: Test B flooded paddy test; conditions: Cyperus difformis, Flood, 1000 g ai/ha; scale 0 to 100; read-out: Plant response rating, Sedge, Umbrella
Method in brief: as §2

[13] = tested on: duck salad (Heteranthera limosa); test: Test B flooded paddy test; conditions: Heteranthera limosa, Flood, 1000 g ai/ha; scale 0 to 100; read-out: Plant response rating, Ducksalad
Method in brief: as §2

rice (Oryza sativa) = test: Test B flooded paddy test; conditions: Oryza sativa, Flood, 1000 g ai/ha; scale 0 to 100; read-out: Plant response rating, Rice
Method in brief: as §2

[14] = tested on: blackgrass (Alopecurus myosuroides); test: Test B postemergence; conditions: Alopecurus myosuroides, post-emergence
Method in brief: as §1

wild oat (Avena fatua) = test: Test B postemergence; conditions: Avena fatua, post-emergence
Method in brief: as §1

COC(=O)c1nc(C2CC2)nc(N)c1F [Compound 25]
60%: pest or weed control at 125 g/ha ([1]; post-emergence, Postemergence, scale 0 to 100 (0 no effect, 100 complete control), read-out: Crabgrass plant response rating) | pest or weed control at 125 g/ha ([1]; pre-emergence, Preemergence, scale 0 to 100 (0 no effect, 100 complete control), read-out: Plant response rating, Crabgrass) | plant injury at 500 g/ha ([2]; pre-emergence, Preemergence, scale 0 to 100 (0 no effect, 100 complete control), read-out: Wheat plant response rating) | pest or weed control at 125 g/ha ([5]; post-emergence, Postemergence, scale 0 to 100 (0 no effect, 100 complete control), read-out: Velvetleaf plant response rating) | pest or weed control at 500 g/ha ([6]; pre-emergence, Preemergence, scale 0 to 100 (0 no effect, 100 complete control), read-out: Barnyardgrass plant response rating) | pest or weed control at 500 g/ha ([14]; 500 g ai/ha, scale 0 to 100, read-out: Plant response rating, Blackgrass)
10%: pest or weed control at 125 g/ha ([14]; 125 g ai/ha, scale 0 to 100 (0 no effect, 100 complete control), read-out: Blackgrass plant response rating) | pest or weed control at 125 g/ha (wild oat (Avena fatua); 125 g ai/ha, scale 0 to 100 (0 no effect, 100 complete control), read-out: Oat, Wild plant response rating)
100%: pest or weed control at 500 g/ha ([9]; post-emergence, Postemergence, scale 0 to 100, read-out: Plant response rating, Pigweed)
40%: pest or weed control at 125 g/ha ([4]; pre-emergence, Preemergence, scale 0 to 100 (0 no effect, 100 complete control), read-out: Plant response rating, Foxtail, Giant) | pest or weed control at 125 g/ha ([6]; post-emergence, Postemergence, scale 0 to 100 (0 no effect, 100 complete control), read-out: Barnyardgrass plant response rating) | pest or weed control at 1000 g/ha [12] | pest or weed control at 1000 g/ha [13]
30%: plant injury at 500 g/ha ([2]; post-emergence, Postemergence, scale 0 to 100, read-out: Plant response rating, Wheat) | Corn plant response rating (crop injury, 0 = no effect, 100 = complete kill) at 500 g/ha (corn (Zea mays); post-emergence, Postemergence, 500 g ai/ha, scale 0 to 100) | pest or weed control at 1000 g/ha [11] | plant injury at 1000 g/ha (rice (Oryza sativa))
20%: plant injury at 125 g/ha ([2]; post-emergence, Postemergence, scale 0 to 100 (0 no effect, 100 complete control), read-out: Wheat plant response rating) | pest or weed control at 125 g/ha ([3]; pre-emergence, Preemergence, scale 0 to 100 (0 no effect, 100 complete control), read-out: Plant response rating, Surinam Grass) | pest or weed control at 125 g/ha ([6]; pre-emergence, Preemergence, scale 0 to 100 (0 no effect, 100 complete control), read-out: Plant response rating, Barnyardgrass) | pest or weed control at 500 g/ha (wild oat (Avena fatua); 500 g ai/ha, scale 0 to 100, read-out: Plant response rating, Oat, Wild)
90%: pest or weed control at 125 g/ha ([7]; post-emergence, Postemergence, scale 0 to 100 (0 no effect, 100 complete control), read-out: Cocklebur plant response rating) | pest or weed control at 500 g/ha ([7]; post-emergence, Postemergence, scale 0 to 100, read-out: Plant response rating, Cocklebur) | pest or weed control at 500 g/ha ([7]; pre-emergence, Preemergence, scale 0 to 100 (0 no effect, 100 complete control), read-out: Cocklebur plant response rating) | pest or weed control at 125 g/ha ([8]; post-emergence, Postemergence, scale 0 to 100 (0 no effect, 100 complete control), read-out: Lambsquarters plant response rating) | pest or weed control at 500 g/ha ([8]; post-emergence, Postemergence, scale 0 to 100, read-out: Plant response rating, Lambsquarters) | pest or weed control at 125 g/ha ([8]; pre-emergence, Preemergence, scale 0 to 100 (0 no effect, 100 complete control), read-out: Plant response rating, Lambsquarters) | pest or weed control at 500 g/ha ([8]; pre-emergence, Preemergence, scale 0 to 100 (0 no effect, 100 complete control), read-out: Lambsquarters plant response rating) | pest or weed control at 125 g/ha ([9]; post-emergence, Postemergence, scale 0 to 100 (0 no effect, 100 complete control), read-out: Pigweed plant response rating) | pest or weed control at 500 g/ha ([9]; pre-emergence, Preemergence, scale 0 to 100 (0 no effect, 100 complete control), read-out: Pigweed plant response rating) | pest or weed control at 125 g/ha ([10]; post-emergence, Postemergence, scale 0 to 100 (0 no effect, 100 complete control), read-out: Morningglory plant response rating) | pest or weed control at 500 g/ha ([10]; post-emergence, Postemergence, scale 0 to 100, read-out: Plant response rating, Morningglory) | pest or weed control at 500 g/ha ([10]; pre-emergence, Preemergence, scale 0 to 100 (0 no effect, 100 complete control), read-out: Morningglory plant response rating)
50%: plant injury at 125 g/ha ([2]; pre-emergence, Preemergence, scale 0 to 100 (0 no effect, 100 complete control), read-out: Plant response rating, Wheat) | pest or weed control at 125 g/ha ([3]; post-emergence, Postemergence, scale 0 to 100 (0 no effect, 100 complete control), read-out: Surinam Grass plant response rating) | pest or weed control at 125 g/ha ([4]; post-emergence, Postemergence, scale 0 to 100 (0 no effect, 100 complete control), read-out: Foxtail, Giant plant response rating)
0%: plant injury at 125 g/ha (corn (Zea mays); post-emergence, Postemergence, 125 g ai/ha, scale 0 to 100 (0 no effect, 100 complete control), read-out: Corn plant response rating) | Corn plant response rating (crop injury, 0 = no effect, 100 = complete kill) at 125 g/ha (corn (Zea mays); pre-emergence, Preemergence, 125 g ai/ha, scale 0 to 100 (0 no effect, 100 complete control)) | plant injury at 500 g/ha (corn (Zea mays); pre-emergence, Preemergence, 500 g ai/ha, scale 0 to 100 (0 no effect, 100 complete control), read-out: Corn plant response rating)
80%: pest or weed control at 500 g/ha ([1]; post-emergence, Postemergence, scale 0 to 100, read-out: Plant response rating, Crabgrass) | pest or weed control at 500 g/ha ([4]; post-emergence, Postemergence, scale 0 to 100, read-out: Plant response rating, Foxtail, Giant) | pest or weed control at 500 g/ha ([4]; pre-emergence, Preemergence, scale 0 to 100 (0 no effect, 100 complete control), read-out: Foxtail, Giant plant response rating) | pest or weed control at 500 g/ha ([5]; pre-emergence, Preemergence, scale 0 to 100 (0 no effect, 100 complete control), read-out: Velvetleaf plant response rating) | pest or weed control at 500 g/ha ([6]; post-emergence, Postemergence, scale 0 to 100, read-out: Plant response rating, Barnyardgrass) | pest or weed control at 125 g/ha ([7]; pre-emergence, Preemergence, scale 0 to 100 (0 no effect, 100 complete control), read-out: Plant response rating, Cocklebur) | pest or weed control at 125 g/ha ([9]; pre-emergence, Preemergence, scale 0 to 100 (0 no effect, 100 complete control), read-out: Plant response rating, Pigweed) | pest or weed control at 125 g/ha ([10]; pre-emergence, Preemergence, scale 0 to 100 (0 no effect, 100 complete control), read-out: Plant response rating, Morningglory)
70%: pest or weed control at 500 g/ha ([1]; pre-emergence, Preemergence, scale 0 to 100 (0 no effect, 100 complete control), read-out: Crabgrass plant response rating) | pest or weed control at 500 g/ha ([3]; post-emergence, Postemergence, scale 0 to 100, read-out: Plant response rating, Surinam Grass) | pest or weed control at 500 g/ha ([3]; pre-emergence, Preemergence, scale 0 to 100 (0 no effect, 100 complete control), read-out: Surinam Grass plant response rating) | pest or weed control at 500 g/ha ([5]; post-emergence, Postemergence, scale 0 to 100, read-out: Plant response rating, Velvetleaf) | pest or weed control at 125 g/ha ([5]; pre-emergence, Preemergence, scale 0 to 100 (0 no effect, 100 complete control), read-out: Plant response rating, Velvetleaf)
